Measured values reported in patent EP0745595A1, “3-(3-Aryloxyphenyl)-1-(substituted methyl)-s-triazine-2,4,6-oxo or thiotrione herbicidal agents” (American Cyanamid Company, priority 1995, dated 1996).

Experiments:
Type in all cases: in vivo
[1] = tested on: ORYZA SATIVA, L. TEBONNET; experiment: Rice tolerance to post-transplant applications under flooded paddy conditions, ORYSAT (Rice, Tebonnet); conditions: post-transplanted rice
Procedure, shortened: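 Two ten-day-old Tebonnet rice seedlings transplanted into silt loam, flooded 1.5–3 cm; three days later the water surface treated with compounds in acetone/water at about 0.5, 0.25, 0.125 and 0.063 kg/ha. Visual 0–9 injury rating versus control after 3–4 weeks in greenhouse.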

[2] = tested on: SETARIA VIRIDIS, (L) BEAU; experiment: Postemergence herbicidal evaluation, SETVI (Foxtail, Green); design: key to SETVI rating / Herbicidal effect rating, SETVI / SETVI: 0-9 visual rating scale vs untreated control
Procedure, shortened: (§1)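 Seedlings about two weeks old were sprayed with compound in 50/50 acetone/water containing 0.5% Tween 20 at about 0.125-0.500 kg/ha and kept in the greenhouse. Visual injury was rated on a 0-9 scale versus control 4-5 weeks after treatment; repeat tests were averaged.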

[3] = tested on: ECHINOCHLOA CRUS-GALLI, (L) BEAU; experiment: Postemergence herbicidal evaluation, ECHCG (Barnyardgrass); design: key to ECHCG rating / Herbicidal effect rating, ECHCG / ECHCG: 0-9 visual rating scale vs untreated control
Procedure, shortened: as §1

[4] = tested on: IPOMOEA SPP.; experiment: Postemergence herbicidal evaluation, IPOSS (Morningglory spp.);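 note: higher means more injury with 8 approaching complete kill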
Procedure, shortened: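 Seedlings of morningglory (Ipomoea spp.) were raised in jiffy flats for roughly two weeks. They were then sprayed postemergence through a nozzle at 40 psi with test compound dispersed in 50/50 acetone/water containing 0.5% TWEEN®20 surfactant. Plants were kept on greenhouse benches under standard care and visually rated 0-9 against controls four to five weeks after treatment.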

[5] = tested on: TRITICUM AESTIVUM, CV. APOLLO; experiment: Postemergence herbicidal evaluation, TRZAWO (Wheat, Winter, CV. APOLLO);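 note: higher means more injury with 8 approaching complete kill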
Procedure, shortened: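 Wheat seedlings, raised in jiffy flats for roughly two weeks, were sprayed postemergence with test compound dispersed in a 50/50 acetone/water mixture containing 0.5% TWEEN®20 surfactant, delivered through a nozzle at 40 psi. Plants were then kept on greenhouse benches under conventional care. Four to five weeks after treatment they were rated visually on a 0-9 scale against an untreated control, and ratings from repeated tests were averaged.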

[6] = tested on: AMBROSIA ARTEMISIIFOLIA, L.; experiment: Postemergence herbicidal evaluation, AMBEL (Ragweed, Common);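 note: higher means more injury with 8 approaching complete kill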
Procedure, shortened: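 Common ragweed (Ambrosia artemisiifolia) seedlings were raised in jiffy flats for roughly two weeks, then sprayed postemergence through a nozzle at 40 psi with the test compound dispersed in 50/50 acetone/water carrying 0.5% TWEEN®20. The plants were kept on greenhouse benches under conventional care. Four to five weeks later, injury was rated visually on a 0-9 scale, and repeat tests were averaged.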

[7] = tested on: CASSIA OBTUSIFOLIA, L.; experiment: Postemergence herbicidal evaluation, CASOB (Sicklepod); design: key to CASOB rating / Herbicidal effect rating, CASOB / CASOB: 0-9 visual rating scale vs untreated control;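 note: higher means more injury with 8 approaching complete kill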
Procedure, shortened: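 Two-week-old seedlings sprayed with compound in 50/50 acetone/water plus 0.5% TWEEN 20 at about 0.125–0.500 kg/ha via nozzle at 40 psi. Kept in greenhouse; rated visually 4–5 weeks after treatment on a 0–9 scale versus untreated control, averaging repeat tests.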

[8] = tested on: CHENOPODIUM ALBUM, L.; experiment: Preemergence herbicidal evaluation, CHEAL (Lambsquarters, Common);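 note: higher means more injury with 8 approaching complete kill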
Procedure, shortened: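 Injury scored visually (0–9; stand, vigor, malformation, size, chlorosis) versus untreated control, four to five weeks post-treatment. Application: aqueous acetone spray onto freshly planted soil cups, equivalent to about 0.125 to 0.50 kg/ha, plants then kept under standard greenhouse care.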

[9] = tested on: ZEA MAYS L.; experiment: Postemergence herbicidal evaluation, ZEAMX (Corn, Field);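 note: higher means more injury with 8 approaching complete kill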
Procedure, shortened: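 Corn seedlings were raised in jiffy flats for roughly two weeks, then sprayed postemergence with the test material dispersed in 50/50 acetone/water containing 0.5% TWEEN®20 surfactant, using a nozzle at 40 psi. Plants were kept on greenhouse benches under standard care and visually rated on a 0-9 scale four to five weeks after treatment.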

[10] = tested on: CHENOPODIUM ALBUM, L.; experiment: Postemergence herbicidal evaluation, CHEAL (Lambsquarters, Common);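 note: higher means more injury with 8 approaching complete kill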
Procedure, shortened: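 Seedlings of common lambsquarters (Chenopodium album) were raised in jiffy flats for roughly two weeks, then sprayed postemergence through a nozzle at 40 psi with test compound dispersed in 50/50 acetone/water containing 0.5% TWEEN®20 surfactant. Plants were kept on greenhouse benches under standard care and rated visually on a 0-9 scale versus controls.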

[11] = tested on: GALIUM APARINE; experiment: Postemergence herbicidal evaluation, GALAP (Galium); design: key to GALAP rating / Herbicidal effect rating, GALAP / GALAP: 0-9 visual rating scale vs untreated control;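 note: higher means more injury with 8 approaching complete kill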
Procedure, shortened: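 Galium (GALAP) seedlings were raised in jiffy flats for about two weeks, then sprayed with test compounds dispersed in 50/50 acetone/water containing 0.5% TWEEN®20, delivered through a nozzle at 40 psi. Plants were kept on greenhouse benches and visually rated 0-9 against a control four to five weeks later; repeat tests were averaged.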

## Cn1c(=O)[nH]c(=O)n(-c2cc(Oc3ccc(C(F)(F)F)cc3Cl)ccc2Cl)c1=O [F, reference compound]
[1]; Rate 0.031 kg/ha
  ORYSAT: 0.0
[1]; Rate 0.063 kg/ha
  ORYSAT: 0.0
[1]; Rate 0.125 kg/ha
  ORYSAT: 1.0
[1]; Rate 0.250 kg/ha
  ORYSAT: 2.0
[2]; Rate 0.016 kg/ha
  SETVI: 0.0
[2]; Rate 0.032 kg/ha
  SETVI: 1.0
[2]; Rate 0.063 kg/ha
  SETVI: 3.0
[2]; Rate 0.125 kg/ha
  SETVI: 2.0
[2]; Rate 0.250 kg/ha
  SETVI: 3.0
[2]; Rate 0.500 kg/ha
  SETVI: 3.0
[3]; Rate 0.016 kg/ha
  ECHCG: 0.0
[3]; Rate 0.032 kg/ha
  ECHCG: 0.0
[3]; Rate 0.063 kg/ha
  ECHCG: 0.0
[3]; Rate 0.125 kg/ha
  ECHCG: 1.0
[3]; Rate 0.250 kg/ha
  ECHCG: 2.0
[3]; Rate 0.500 kg/ha
  ECHCG: 2.0
[4]; Rate 0.016 kg/ha
  IPOSS: 3.0
[4]; Rate 0.032 kg/ha
  IPOSS: 4.0
[4]; Rate 0.063 kg/ha
  IPOSS: 6.0
[4]; Rate 0.125 kg/ha
  IPOSS: 5.0
[4]; Rate 0.250 kg/ha
  IPOSS: 6.0
[4]; Rate 0.500 kg/ha
  IPOSS: 7.0
[5]; Rate 0.016 kg/ha
  TRZAWO: 1.5
[5]; Rate 0.032 kg/ha
  TRZAWO: 1.5
[5]; Rate 0.063 kg/ha
  TRZAWO: 2.5
[5]; Rate 0.125 kg/ha
  TRZAWO: 3.0
[5]; Rate 0.250 kg/ha
  TRZAWO: 3.5
[5]; Rate 0.500 kg/ha
  TRZAWO: 3.5
[6]; Rate 0.016 kg/ha
  AMBEL: 2.0
[6]; Rate 0.032 kg/ha
  AMBEL: 3.0
[6]; Rate 0.063 kg/ha
  AMBEL: 6.0
[6]; Rate 0.125 kg/ha
  AMBEL: 6.0
[6]; Rate 0.250 kg/ha
  AMBEL: 6.0
[6]; Rate 0.500 kg/ha
  AMBEL: 7.0
[7]; Rate 0.016 kg/ha
  CASOB: 2.0
[7]; Rate 0.032 kg/ha
  CASOB: 4.0
[7]; Rate 0.063 kg/ha
  CASOB: 5.0
[7]; Rate 0.125 kg/ha
  CASOB: 8.0
[7]; Rate 0.250 kg/ha
  CASOB: 9.0
[7]; Rate 0.500 kg/ha
  CASOB: 6.5
[8]; Rate 0.063 kg/ha
  CHEAL: 9.0
[8]; Rate 0.125 kg/ha
  CHEAL: 9.0
[8]; Rate 0.250 kg/ha
  CHEAL: 9.0
[8]; Rate 0.500 kg/ha
  CHEAL: 9.0
[9]; Rate 0.016 kg/ha
  ZEAMX: 1.5
[9]; Rate 0.032 kg/ha
  ZEAMX: 2.0
[9]; Rate 0.063 kg/ha
  ZEAMX: 2.5
[9]; Rate 0.125 kg/ha
  ZEAMX: 3.0
[9]; Rate 0.250 kg/ha
  ZEAMX: 4.0
[9]; Rate 0.500 kg/ha
  ZEAMX: 4.0
[10]; Rate 0.016 kg/ha
  CHEAL: 4.0
[10]; Rate 0.032 kg/ha
  CHEAL: 5.0
[10]; Rate 0.063 kg/ha
  CHEAL: 6.0
[10]; Rate 0.125 kg/ha
  CHEAL: 8.0
[10]; Rate 0.250 kg/ha
  CHEAL: 9.0
[10]; Rate 0.500 kg/ha
  CHEAL: 9.0
[11]; Rate 0.016 kg/ha
  GALAP: 5.0
[11]; Rate 0.032 kg/ha
  GALAP: 6.0
[11]; Rate 0.063 kg/ha
  GALAP: 6.0
[11]; Rate 0.125 kg/ha
  GALAP: 6.0
[11]; Rate 0.250 kg/ha
  GALAP: 8.0
[11]; Rate 0.500 kg/ha
  GALAP: 6.0
